The values that follow come from patent US12240851B1, “Pyrido[3′,4′:4,5]pyrrolo[3,2-c]naphthyridine compounds as CK2 inhibitors” (KING FAISAL UNIVERSITY, priority 2023, dated 2025).

In test [1] the test system is PC3 (prostate). Put plainly: In vitro cytotoxic activity assay (MTT), PC3. It is filed as cell-based. The conditions noted are these: Homo sapiens, 96 hours exposure, read-out: IC50, 50% inhibition of cell proliferation. Here is the method: (§1) Compounds 1-15 were screened for their in vitro cytotoxic activity utilizing a 3-(4,5-dimethyl-thiazol-2-yl)-2,5-diphenyltetrazolium bromide (MTT) assay against selected cancer human cell lines consisting of PC3 (prostate), HCT116 (colon), A375 (melanoma), H1299 (lung), MIAPaCa-2 (pancreas), HL60 (leukemia), MCF7 (breast), MDA-MB-231 (breast) (T. Mosmann, J. Immunol. Meth., 1983, 65, 55-63). The cells were cultured at 37° C. in RMPI1640 medium supplemented with 10% fetal bovine serum, 50 IU/mL penicillin, and 50 µg/mL streptomycin in a 5% CO2 incubator. All cells were sub-cultured 3 times/week by trypsinisation. Viable cells were seeded and allowed to adhere for 12 h before a test drug was added in 96-well plates at an initial density of 1.0×10^5 cells/mL. Tumour cell lines were separately exposed to various concentrations of the tested compounds followed by incubation at a temperature of 37° C. during 96 h inside a medium of fresh RMPI 1640. Cells were subsequently incubated at 37° C. using MTT at 0.5 mg/mL during 4 h. After removal of supernatant, formazan crystals were dissolved in isopropanol and the optical density was measured at 570 nm. CX-4945 was used as a positive control.

The subject of test [2] is HCT116 (colon). Put plainly: In vitro cytotoxic activity assay (MTT), HCT116. It is filed as cell-based. The conditions noted are these: Homo sapiens, HCT-116, 96 hours exposure, read-out: IC50, 50% inhibition of cell proliferation. Here is the method:
as §1

For test [3], the system named is A375 (melanoma). As to the kind of experiment: In vitro cytotoxic activity assay (MTT), A375. The class given is cell-based. The conditions noted are these: Homo sapiens, A-375, 96 hours exposure, read-out: IC50, 50% inhibition of cell proliferation. Here is the method: as §1
Test [4] concerns H1299 (lung). Put plainly: In vitro cytotoxic activity assay (MTT), H1299. The class given is cell-based. The conditions noted are these: Homo sapiens, NCI-H1299, 96 hours exposure, read-out: IC50, 50% inhibition of cell proliferation. Here is the method: as §1
Test [5] concerns MIAPaCa-2 (pancreas). Put plainly: In vitro cytotoxic activity assay (MTT), MIAPaCa-2. It is filed as cell-based. The conditions noted are these: Homo sapiens, MIA PaCa-2, 96 hours exposure, read-out: IC50, 50% inhibition of cell proliferation. Here is the method: as §1
Test [6] relates to HL60 (leukemia). As to the kind of experiment: In vitro cytotoxic activity assay (MTT), HL60. It is filed as cell-based. The conditions noted are these: Homo sapiens, HL-60, 96 hours exposure, read-out: IC50, 50% inhibition of cell proliferation. Here is the method: as §1
Test [7] relates to MCF7 (breast). As to the kind of experiment: In vitro cytotoxic activity assay (MTT), MCF7. The class given is cell-based. The conditions noted are these: Homo sapiens, 96 hours exposure, read-out: IC50, 50% inhibition of cell proliferation. Here is the method: as §1
Test [8] has as its system MDA-MB-231 (breast). Put plainly: In vitro cytotoxic activity assay (MTT), MDA-MB-231. It is filed as cell-based. The settings on record: Homo sapiens, 96 hours exposure, read-out: IC50, 50% inhibition of cell proliferation. Here is the method: as §1
The target of test [9] is T1, recombinant human CK2 (RRββ-holoenzyme) (Homo sapiens, UniProt P68400).
T1 construct: purchased Millipore
T1 sequence (P68400 whole entry): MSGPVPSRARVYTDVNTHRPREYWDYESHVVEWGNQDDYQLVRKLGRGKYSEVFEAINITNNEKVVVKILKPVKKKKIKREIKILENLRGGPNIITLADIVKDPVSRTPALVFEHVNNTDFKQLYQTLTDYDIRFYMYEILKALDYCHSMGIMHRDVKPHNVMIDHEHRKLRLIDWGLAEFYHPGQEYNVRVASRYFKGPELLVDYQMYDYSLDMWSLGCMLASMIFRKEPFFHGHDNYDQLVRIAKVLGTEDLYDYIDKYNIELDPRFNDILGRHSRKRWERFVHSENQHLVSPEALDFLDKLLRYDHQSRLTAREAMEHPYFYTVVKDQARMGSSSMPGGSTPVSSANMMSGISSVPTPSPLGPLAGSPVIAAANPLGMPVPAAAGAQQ
T1 sequence (P67870 whole entry partner): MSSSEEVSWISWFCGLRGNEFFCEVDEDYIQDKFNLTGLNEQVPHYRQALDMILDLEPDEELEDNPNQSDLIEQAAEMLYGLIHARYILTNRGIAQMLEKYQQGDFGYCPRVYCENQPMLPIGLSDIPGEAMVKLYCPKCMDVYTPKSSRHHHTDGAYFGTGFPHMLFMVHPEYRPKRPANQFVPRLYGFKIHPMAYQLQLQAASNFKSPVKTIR
As to the kind of experiment: CK2 Kinase Assay (33P-ATP, filter plate). It is filed as biochemical. The conditions noted are these: final ATP concentration 15 μM, 10 min at 30° C.; read-out: protein kinase CK2 IC50. Here is the method:
CK2 Kinase Assay was conducted using the protocol as described in Pierre F. et al; J. Med. Chem. 2011, 54, 635-654. The tested compounds in aqueous solution were added at a volume of 10 μL to a reaction mixture comprising 10 μL of assay dilution buffer (ADB; 20 mM MOPS, pH 7.2, 25 mM β-glycerol phosphate, 5 mM EGTA, 1 mM sodium orthovanadate, and 1 mM dithiothreitol), 10 μL of substrate peptide (RRRDDDSDDD, dissolved in ADB at a concentration of 1 mM), 10 μL of recombinant human CK2 (RRββ-holoenzyme, 25 ng dissolved in ADB; Millipore). Reactions were initiated by the addition of 10 μL of ATP solution (90% 75 mMMgCl2, 75 μM ATP (final ATP concentration:15 μM) dissolved in ADB; 10% [γ-33P] ATP (stock 1mCi/100 μL; 3000 Ci/mmol (Perkin-Elmer) and maintained for 10 min at 30° C. The reactions were quenched with 100 μL of 0.75% phosphoric acid and then transferred to and filtered through a phosphor cellulose filter plate (Millipore). After washing each well five times with 0.75% phosphoric acid, the plate was dried under vacuum for 5 min and, following the addition of 15 μL of scintillation fluid to each well, the residual radioactivity was measured using a Wallac […]. The IC50 values were derived from eight concentrations of test inhibitors.

In the case of `Clc1cccc(Nc2nc3c4cnccc4[nH]c3c3cnccc23)c1` [Compound (1), N-(3-chlorophenyl)-11H-pyrido[3′,4′:4,5]pyrrolo[3,2-c][2,6]naphthyridin-5-amine], the IC50 in test [1] is 800 nM; in test [2], 1500 nM; in test [3], 4000 nM; in test [4], 1100 nM; in [5], 1400 nM; in test [6] it was 3200 nM. Moreover, the figures for the IC50 in test [7], in test [8] and in test [9] were 2500 nM, 2900 nM and 21 nM, respectively.
